{"source": "patent US20260232661A1", "about": "“Compositions and Uses Thereof” (Purposeful IKE, priority 2020, published 2026)", "type_in_all_cases": "in vivo", "key": {"[1]": {"system": "Fmr1 KO mice", "experiment": "Self-grooming (stereotypy)", "conditions": "Dunnett's test, alpha 0.05; doses as E31", "method": "(§1) Fmr1 KO mice backcrossed to the FVB strain and WT littermates were used during experiments. TransnetXY Automated Genotyping (www.transnetyx.com/). TRANSNETYX, INC., 8110 Cordova Rd. Suite 119, Cordova, TN 38016, USA was used for genotyping. The animals were pretreated for 14 days. The active ingredients of Sumatriptan and Ergoloid were in a water carrier, whereas oxitriptan was in a methanol carrier.\n(§2) The mice were housed in plastic cages (35×30×12 cm), 5 in each. The room temperature (21±2° C.), relative humidity (55±5%), a 12-h light-dark cycle (lights on 7 a.m.-7 p.m.) and air exchange (16 times per h) were automatically controlled. The animals had free access to commercial food pellets and water. Testing was conducted during the light phase. Ten mice per treatment group were used for the AGS experiments. Experiments were conducted in line with the requirements of the UK Animals (Scientific Procedures) Act, 1986.\n(§3) All experiments were conducted with the experimenter blind to genotype and drug treatment. Separate investigators prepared and coded dosing solutions, allocated the mice to the study treatment groups, dosed the animals, and collected the Audiogenic Seizure data.\nBehavior testing was conducted at 2 weeks. The behavioral tests were as follows: 1. Hyperactivity: Open field; 2. Stereotypy: Self-grooming; 3. […]\nFor stereotypy, self-grooming was assessed. […]"}, "[2]": {"system": "Fmr1 KO mice", "experiment": "Test of daily living (nesting; marble burying)", "method": "as §1, §2, §3\n(§4) Behavior testing was conducted at 2 weeks. The behavioral tests were as follows: 1. Hyperactivity: Open field; 2. Stereotypy: Self-grooming; 3. Sociability: Three chamber partition test; 4. Memory and Learning: Novel Object Recognition; 5. Anxiety: hyponeophagia; and 6. Test of daily living: marble burying\nFor test of daily living, nesting was assessed as nest building is an innate behavior in rodents, even when raised in laboratory settings. Synthetic and/or natural materials (such as twine, tissue, cotton, paper, and hay) are provided as a gauge of their overall well-being and as an ancillary assessment to predict the possible decline in cognition. Typically, changes in nesting behaviors, such as failure to create a nest, indicate a change in health or welfare. In addition, nesting behavior is sensitive to many environmental and physiological challenges, as well as many genetic mutations underlying pathological disease states (Gaskill 2013).\n(§5) The treatment of the mice with OX (Oxitriptan), SU (Sumatriptan), ER (Ergoloid mesylates, also referred to as ergoloid herein) were according to the matrix shown below in Table 1.\n(§6) The experimental procedures described above for Example 1 were used in the following tests, as well as the addition of two further behaviour tests as described below. An SSRI (selective serotonin re-uptake inhibitor) was co-dosed with the ergoloid mesylates and oxitriptan to assess the effect of the ergoloid mesylates and oxitriptan treatment on a subject already receiving SSRI treatment.\n(§7) The treatment of the mice with OX (Oxitriptan), ER (Ergoloid mesylates) and FL (fluvoxamine) were according to the matrix shown below in Table 21. The triple combination involved dosing of 2 mg/kg ergoloid mesylates, 40 mg/kg oxitriptan and 40 mg/kg of fluvoxamine (the SSRI)."}, "[3]": {"system": "Fmr1 KO mice", "experiment": "Three chamber partition test (sociability)", "parameters": "Mean Diff., N_WT-V vs. treated KO (Sociability) / Mean 2, treated KO group (Sociability) / Mean Diff., F_KO-V vs. F_KO treated (Sociability) / Mean Diff., F_KO-V vs. N_KO treated (Sociability) / Mean 2, F_KO treated group (Sociability) / Mean 2, N KO treated group (Sociability) / Mean 2, N_KO treated group (Sociability) / Data table Sociability, F_KO-Sumatriptan / Data table Sociability, N_KO-Sumatriptan / Data table Sociability, F_KO-Oxitriptan: unit not given here", "method": "as §1, §2, §3, §4\nFor sociability a three chamber partition test was utilized. The three-chamber paradigm test known as Crawley's sociability and preference for social novelty protocol has previously been successfully employed to study social affiliation and social memory in several inbred and mutant mouse lines. The main principle of the test was based on the free choice by a subject mouse to spend time in any of three box's compartments during two experimental sessions, including indirect contact with one or two mice with which it was unfamiliar (Kaidanovich-Beilin 2011).\n(§8) The treatment of the mice with OX (Oxitriptan), SU (Sumatriptan), ER (Ergoloid mesylates, also referred to as ergoloid herein) were according to the matrix shown below in Table 1. […]"}, "[4]": {"system": "Fmr1 KO mice", "experiment": "Hyponeophagia test (anxiety)", "method": "as §1, §2, §3, §4\nFor anxiety a hyponeophagia test was conducted. Mice and rats cannot vomit, due to the tightness of the cardiac sphincter of the stomach, so to overcome the problem of potential food toxicity they have evolved a strategy of first ingesting only very small amounts of novel substances. The amounts ingested then gradually increase until the animal has determined whether the substance is safe and nutritious. So the old rat-catchers would first put a palatable substance such as oatmeal, which was to be the vehicle for the toxin, in the infested area (Deacon 2011).\nas §5, §6, §7"}, "[5]": {"system": "Fmr1 KO mice", "experiment": "Novel Object Recognition (memory and learning)", "parameters": "Mean Diff., N_WT-V vs. treated KO (NOR) / Mean 2, treated KO group (NOR) / Mean Diff., F_KO-V vs. F_KO treated (NOR) / Mean Diff., F_KO-V vs. N_KO treated (NOR) / Mean 2, F_KO treated group (NOR) / Mean 2, N_KO treated group (NOR): unit not given here", "method": "as §1, §2, §3, §4\nFor memory and learning, a novel object recognition (NOR) task was used to evaluate the rodents' ability to recognize a novel object in the environment. […] The task procedure consists of three phases: habituation, familiarization, and test phase (Antunes 2012).\nas §8"}, "[6]": {"system": "Fmr1 KO mice", "experiment": "Open field test (hyperactivity)", "method": "as §1, §2, §3, §4\nFor hyperactivity, the open field test (OFT) is a common measure of exploratory behavior and general activity in both mice and rats, where both the quality and quantity of the activity can be measured. Principally, the open field (OF) is an enclosure, generally square, rectangular, or circular in shape with surrounding walls that prevent escape. The OFT is also commonly used as a mechanism to assess the sedative, toxic, or stimulant effects of compounds (Gould 2009).\nas §5, §6, §7"}, "[7]": {"conditions": "KO mice, mg/kg: Sumatriptan 20, Oxitriptan 40, Ergoloid 4, Ergoloid 2+Sumatriptan 10, Ergoloid 2+Oxitriptan 40"}, "[8]": {"conditions": "F_ groups, mg/kg: Sumatriptan 20, Oxitriptan 40, Ergoloid 4, Ergoloid 2+Oxitriptan 40 (Column M)"}, "[9]": {"conditions": "F_, KO mice, Sumatriptan 20 mg/kg, individual animals"}, "[10]": {"conditions": "N_ groups, mg/kg: Sumatriptan 20, Oxitriptan 40, Ergoloid 4, Ergoloid 2+Oxitriptan 40"}, "[11]": {"conditions": "N_ groups, mg/kg: Sumatriptan 20, Oxitriptan 40, Ergoloid 4, F_KO Ergoloid 2+Sumatriptan 10, N_KO Ergoloid 2+Oxitriptan 40"}}, "note": "“And” between values parts separate entries of the source, which are not always exact repeats. Equal entries are not always repeated."}
{"smiles": "CNS(=O)(=O)Cc1ccc2[nH]cc(CCN(C)C)c2c1", "note": "[Sumatriptan]", "values": [{"measurement": "Significant? KO-V vs. treated KO (Stereotypy)", "setting": "[1]", "result": "Yes"}, {"measurement": "Significant? WT-V vs. treated KO (Test of daily living)", "setting": "[2]; Dunnett's test, alpha 0.05, doses as E11", "result": "No"}, {"measurement": "Significant? KO-V vs. treated KO (Test of daily living)", "setting": "[2]; Dunnett's test, alpha 0.05, doses as E41", "result": "Yes"}, {"measurement": "Summary, WT-V vs. treated KO (Test of daily living)", "setting": "[2]; Dunnett's test, doses as E11", "result": "ns"}, {"measurement": "Mean Diff., WT-V vs. treated KO (Test of daily living)", "setting": "[2]; [7]", "result": 0.1000}, {"measurement": "Mean 2, treated KO group (Test of daily living)", "setting": "[2]; comparison against KO-V, doses as E41", "result": 4.700}, {"measurement": "Mean 2, treated KO group (Test of daily living)", "setting": "[2]; comparison against WT-V, doses as E11", "result": 4.700}, {"measurement": "Significant? F_KO-V vs. F_KO treated (Sociability)", "setting": "[3]; Dunnett's test, alpha 0.05, F_ groups, doses as E56", "result": "Yes"}, {"measurement": "Significant? F_KO-V vs. N_KO treated (Sociability)", "setting": "[3]; Dunnett's test, alpha 0.05, N_ groups, doses as E61", "result": "Yes"}, {"measurement": "Significant? N_WT-V vs. treated KO (Sociability)", "setting": "[3]; Dunnett's test, alpha 0.05, groups and doses as E21", "result": "No"}, {"measurement": "Summary, N_WT-V vs. treated KO (Sociability)", "setting": "[3]; Dunnett's test, groups and doses as E21", "result": "ns"}, {"measurement": "Mean Diff., F_KO-V vs. F_KO treated (Sociability)", "setting": "[3]; [8]", "result": 19.40}, {"measurement": "Data table Sociability, F_KO-Sumatriptan", "setting": "[3]; [9]", "result": "61 (2×) and 64 and 65 (2×) and 60 (3×) and 63 (2×)"}, {"measurement": "Data table Sociability, N_KO-Sumatriptan", "setting": "[3]; KO mice, Sumatriptan 20 mg/kg, individual animals", "result": "99 and 97 (2×) and 103 and 98 and 90 and 102 and 100 and 95 and 101"}, {"measurement": "Mean Diff., F_KO-V vs. N_KO treated (Sociability)", "setting": "[3]; [10]", "result": "−16.80"}, {"measurement": "Mean Diff., N_WT-V vs. treated KO (Sociability)", "setting": "[3]; [11]", "result": 0.9000}, {"measurement": "Mean 2, F_KO treated group (Sociability)", "setting": "[3]; comparison against F_KO-V, doses as E56", "result": 62.20}, {"measurement": "Mean 2, N KO treated group (Sociability)", "setting": "[3]; comparison against F_KO-V, doses as E61", "result": 98.2}, {"measurement": "Mean 2, treated KO group (Sociability)", "setting": "[3]; comparison against N_WT-V, groups and doses as E21", "result": 98.20}, {"measurement": "Significant? WT-V vs. treated KO (Hyponeophagia)", "setting": "[4]; Dunnett's test, alpha 0.05, doses as E6", "result": "Yes"}, {"measurement": "Significant? KO-V vs. treated KO (Hyponeophagia)", "setting": "[4]; Dunnett's test, alpha 0.05, doses as E36", "result": "Yes"}, {"measurement": "Mean Diff., WT-V vs. treated KO (Hyponeophagia)", "setting": "[4]; [7]", "result": "−9.200"}, {"measurement": "Significant? F_KO-V vs. F_KO treated (NOR)", "setting": "[5]; Dunnett's test, alpha 0.05, F_ groups, doses as E46", "result": "No"}, {"measurement": "Significant? F_KO-V vs. N_KO treated (NOR)", "setting": "[5]; Dunnett's test, alpha 0.05, N_ groups, doses as E51", "result": "No"}, {"measurement": "Significant? N_WT-V vs. treated KO (NOR)", "setting": "[5]; Dunnett's test, alpha 0.05, groups and doses as E16", "result": "Yes"}, {"measurement": "Summary, F_KO-V vs. F_KO treated (NOR)", "setting": "[5]; Dunnett's test, F_ groups, doses as E46", "result": "ns"}, {"measurement": "Summary, F_KO-V vs. N_KO treated (NOR)", "setting": "[5]; Dunnett's test, N_ groups, doses as E51", "result": "ns"}, {"measurement": "Mean Diff., F_KO-V vs. F_KO treated (NOR)", "setting": "[5]; [8]", "result": "−0.2000"}, {"measurement": "Data table Novel Object Recognition, F_KO-Sumatriptan", "setting": "[5]; [9]", "result": 6}, {"measurement": "Mean Diff., F_KO-V vs. N_KO treated (NOR)", "setting": "[5]; [10]", "result": "−0.7000"}, {"measurement": "Mean Diff., N_WT-V vs. treated KO (NOR)", "setting": "[5]; [11]", "result": 6.600}, {"measurement": "Mean 2, F_KO treated group (NOR)", "setting": "[5]; comparison against F_KO-V, doses as E46", "result": 5.800}, {"measurement": "Mean 2, N_KO treated group (NOR)", "setting": "[5]; comparison against F_KO-V, doses as E51", "result": 7.300}, {"measurement": "Mean 2, treated KO group (NOR)", "setting": "[5]; comparison against N_WT-V, groups and doses as E16", "result": 7.300}, {"measurement": "Below threshold? WT-V vs. treated KO (Open Field)", "setting": "[6]; Dunnett's test, alpha 0.05, doses as E1", "result": "Yes"}, {"measurement": "Significant? KO-V vs. treated KO (Open Field)", "setting": "[6]; Dunnett's test, alpha 0.05, doses as E26", "result": "Yes"}, {"measurement": "Mean Diff., KO-V vs. treated KO (Open Field)", "setting": "[6]; KO mice, mg/kg: Sumatriptan 20, Oxitriptan 80, Ergoloid 4, Ergoloid 2+Oxitriptan 40", "result": 846.8}]}
